From the supplement of paper PMC7695840
Values joined by “and” are separate entries in the source; they are usually repeats but may differ in a detail not shown here. Identical values can stand only once. Counter-ions that a name gives are not always drawn.

Columns and labels:
[1] = system: Staphylococcus aureus MW2 delta-mecA (mecA-); assay: IC50 (growth, competition assay); conditions: cefoxitin: subinhibitory
In short: (§1)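 Pre-induced, 1:1-mixed fluorescent S. aureus MW2 mecA+ and ΔmecA strains were grown 20 h at 37 °C, 90% humidity, unshaken, in LB with a daily-set subinhibitory cefoxitin dose, in 1536-well plates. Compounds were given on five- or nine-point 2-fold gradients, in two dye-swapped replicates. DsRed (540/590) and GFP (485/520) were scaled per plate between single-strain control medians, with No Treatment then set to 0.5. Per-strain IC50 was the dose halving the No Treatment signal, or the maximal signal.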

[2] = system: Staphylococcus aureus MW2 (mecA+); assay: IC50 (growth, competition assay); conditions: cefoxitin: subinhibitory
In short: as §1

Structure (SMILES)	IC50 ([1]; fluorescent label: DsRed)	IC50 ([1]; fluorescent label: GFP)	IC50 ([2]; fluorescent label: DsRed)	IC50 ([2]; fluorescent label: GFP)
OCCN1CCN(CCCN2c3ccccc3Sc3ccc(Cl)cc32)CC1 [TRILAFON]	18.4 µM	15.8 µM	57 µM	52.6 µM
O=C(O)c1ccccc1Nc1cccc(C(F)(F)F)c1 [ARLEF]	< 9.85 µM	24.8 µM	17.2 µM	19 µM
CO[C@H]1/C=C/O[C@@]2(C)Oc3c(C)c(O)c4c(c3C2=O)C2=NC3(CCN(CC(C)C)CC3)NC2=C(NC(=O)/C(C)=C\C=C\[C@H](C)[C@H](O)[C@@H](C)[C@@H](O)[C@@H](C)[C@H](OC(C)=O)[C@@H]1C)C4=O [Rifabutin]	< 0.498 µM	< 0.498 µM	< 0.498 µM	< 0.498 µM
O=C(Nc1ncc([N+](=O)[O-])s1)c1ccc([N+](=O)[O-])c(Cl)c1	13.2 µM	15.2 µM	< 9.85 µM	< 9.85 µM
O=C1C2CC=CCC2C(=O)N1SC(Cl)(Cl)Cl (stereo unspecified) [CAPTAN]	< 9.85 µM	< 9.85 µM	15.7 µM	18 µM
CC[C@H]1OC(=O)[C@H](C)[C@@H](O[C@H]2C[C@@](C)(OC)[C@@H](O)[C@H](C)O2)[C@H](C)[C@@H](O[C@@H]2O[C@H](C)C[C@H](N(C)C)[C@H]2O)[C@](C)(O)C[C@@H](C)/C(=N\OCOCCOC)[C@H](C)[C@@H](O)[C@]1(C)O [RULIDE]	< 9.85 µM	< 9.85 µM	< 9.85 µM	< 9.85 µM
COc1c(O)cc2oc3cc(O)c(CC=C(C)C)c(O)c3c(=O)c2c1CC=C(C)C [alpha-MANGOSTIN]	< 9.85 µM	< 9.85 µM	< 9.85 µM	< 9.85 µM
O=C(O)C1=C(CSc2nnnn2CS(=O)(=O)O)CS[C@@H]2[C@H](NC(=O)[C@H](O)c3ccccc3)C(=O)N12 [MONOCID]	< 9.85 µM	< 9.85 µM	98.3 µM	109 µM
C[C@@H](O[C@H]1OCCN(Cc2n[nH]c(=O)[nH]2)[C@H]1c1ccc(F)cc1)c1cc(C(F)(F)F)cc(C(F)(F)F)c1 [Aprepitant (MK-0869)]	18.9 µM	17.8 µM	45 µM	54.3 µM
O=C1NC(=O)/C(=C/c2ccc(-c3ccc(F)cc3O)o2)S1	< 9.85 µM	< 9.85 µM	< 9.85 µM	< 9.85 µM and 13.8 µM
Nc1nc(/C(=C/CC(=O)O)C(=O)N[C@@H]2C(=O)N3C(C(=O)O)=CCS[C@H]23)cs1 [CEDAX]	< 9.85 µM	< 9.85 µM	18.2 µM	18.9 µM
O=Nc1ccc2oc(=O)ccc2c1 [6-Nitroso-1,2-benzopyrone]	31 µM	32.1 µM	53.1 µM	57.9 µM
Cc1cc(C(C)(C)CC(C)(C)C)ccc1OCCOCC[N+](C)(C)Cc1ccccc1 [DELAVAN]	< 9.85 µM	< 9.85 µM	< 9.85 µM	< 9.85 µM
O=S(=O)(O)c1cc(I)c(O)c2ncccc12 [YATREN]	49.8 µM	59.8 µM	84.9 µM	102 µM
O=C1NC(c2cccc([N+](=O)[O-])c2)=CCN1c1ccccc1O [Icilin]	19.3 µM	25.5 µM	63.3 µM	54.4 µM
Cc1cc(N)c2ccccc2[n+]1CCCCCCCCCC[n+]1c(C)cc(N)c2ccccc21 [FLUOMIZIN]	< 9.85 µM	< 9.85 µM	13.2 µM	12.2 µM
CN1CCN(CCCN2c3ccccc3Sc3ccc(C(F)(F)F)cc32)CC1 [Trifluoperazine dihydrochloride]	15.7 µM	16.5 µM	51.1 µM	52.4 µM
CCn1cc(C(=O)O)c(=O)c2cc(F)c(N3CCN(C)CC3)cc21 [Pefloxacin Mesylate Dihydrate]	< 9.85 µM	< 9.85 µM	< 9.85 µM	< 9.85 µM
CCCCC[C@H](CC(=O)NO)C(=O)N[C@H](C(=O)N1CCC[C@H]1CO)C(C)C [Actinonin]	< 9.85 µM	< 9.85 µM	15.6 µM	11 µM
CC(=O)OCC1=C(C(=O)O)N2C(=O)[C@@H](NC(=O)Cc3cccs3)[C@H]2SC1 [Cephalothin sodium]	< 9.85 µM	< 9.85 µM	< 9.85 µM	< 9.85 µM
N[C@@H](C(=O)N[C@@H]1C(=O)N2C(C(=O)O)=C(Cl)CS[C@H]12)c1ccccc1 [Cefaclor (Ceclor)]	< 0.498 µM	< 0.498 µM	7.22 µM	7.26 µM
CCn1cc(C(=O)O)c(=O)c2cc(F)c(N3CCNC(C)C3)c(F)c21 (stereo unspecified) [Lomefloxacin hydrochloride]	< 9.85 µM	< 9.85 µM	< 9.85 µM	< 9.85 µM

Structure (SMILES)	IC50 ([1]; fluorescent label: DsRed)	IC50 ([1]; fluorescent label: GFP)	IC50 ([2]; fluorescent label: DsRed)	IC50 ([2]; fluorescent label: GFP)
CCOC(=O)CCC(=O)O[C@H]1[C@H](O[C@@H]2[C@@H](C)[C@H](O[C@H]3C[C@@](C)(OC)[C@@H](O)[C@H](C)O3)[C@@H](C)C(=O)O[C@H](CC)[C@@](C)(O)[C@H](O)[C@@H](C)C(=O)[C@H](C)C[C@@]2(C)O)O[C@H](C)C[C@@H]1N(C)C [ERYPED]	< 9.85 µM	< 9.85 µM	< 9.85 µM	< 9.85 µM
CSc1ccc2c(c1)C(N1CCN(C)CC1)Cc1ccccc1S2 (stereo unspecified) [Methiothepin mesylate]	21.3 µM	19.1 µM	56.7 µM	55.3 µM
CC(C)(C)c1ccc(S(=O)(=O)/C=C/C#N)cc1 [Bay 11-7085]	< 9.85 µM	< 9.85 µM	< 9.85 µM	< 9.85 µM
O=C1[C@H](CC[C@H](O)c2ccc(F)cc2)[C@@H](c2ccc(O)cc2)N1c1ccc(F)cc1 [ZETIA]	25.9 µM	24.8 µM	103 µM	105 µM
COc1ccc(CCN2CCC(Nc3nc4ccccc4n3Cc3ccc(F)cc3)CC2)cc1 [HISMANAL]	45.1 µM	20.2 µM	80.2 µM	106 µM
O=C(CCCCCN1CCN(c2ccccc2-c2ccccc2)CC1)NC1CCCc2ccccc21 (stereo unspecified) [LP 12 hydrochloride hydrate]	< 9.85 µM	< 9.85 µM	17.2 µM	23.3 µM
NC(=O)c1cc[n+](CC2=C(C(=O)[O-])N3C(=O)[C@@H](NC(=O)Cc4cccs4)[C@H]3SC2)cc1 [CEFALONIUM]	< 9.85 µM	< 9.85 µM	17.5 µM	15.3 µM
c1ccc2c(Cc3c[nH]c4ccccc34)c[nH]c2c1 [3,3'-DIINDOLYLMETHANE]	21.7 µM	21.4 µM	67.4 µM	105 µM
Cc1cc(-n2c(=O)[nH]c(=O)n(C)c2=O)ccc1Oc1ccc(SC(F)(F)F)cc1 [BAYCOX]	59.8 µM	32 µM	70.8 µM	113 µM
CC(=O)Oc1c2c(c(CC=C(C)C)c3c1C(=O)C1=C[C@@H]4CC5C(C)(C)OC(C/C=C(\C)C(=O)O)(C4=O)[C@@]15O3)OC(C)(CCC=C(C)C)C=C2 (stereo partly specified) [ACETYL ISOGAMBOGIC ACID]	< 9.85 µM	< 9.85 µM	13.5 µM	17.2 µM
CCCCCCCCCCCCC[N+](C)(C)Cc1ccccc1 [ROCCAL]	< 9.85 µM	< 9.85 µM	< 9.85 µM	< 9.85 µM
CCCCCC(=O)Cc1cc(O)cc(O)c1C(=O)Oc1cc(CC(=O)CCCCC)c(C(=O)O)c(OC)c1 [ARTHONIOIC ACID]	45.5 µM	49.7 µM	24 µM	56 µM
CC[C@H](C)C[C@H](C)CCCCCCCCC(=O)N[C@H]1C[C@@H](O)[C@@H](NCCN)NC(=O)[C@@H]2[C@@H](O)CCN2C(=O)[C@H]([C@H](O)CCN)NC(=O)[C@H]([C@H](O)[C@@H](O)c2ccc(O)cc2)NC(=O)[C@@H]2C[C@@H](O)CN2C(=O)[C@H]([C@@H](C)O)NC1=O [Caspofungin acetate]	14.4 µM	< 9.85 µM	36.7 µM	42.1 µM
CCCCCCCCc1ccc(CCC(N)(CO)CO)cc1 [Fingolimod (FTY720)]	11.8 µM and < 9.85 µM	10.7 µM and < 9.85 µM	15.2 µM and 14.7 µM	18.8 µM and 14.9 µM
COc1ccc(Cl)cc1NC(=O)Nc1cc(C)nc2ccccc12 [PQ 401]	10.6 µM	12.3 µM	24.3 µM	17.9 µM
C[CH2][Hg][S]c1ccccc1C(=O)[O-].[Na+] [MERTHIOLATE]	< 9.85 µM	< 9.85 µM	< 9.85 µM	< 9.85 µM
C=CC1=C(C(=O)O)N2C(=O)[C@@H](NC(=O)/C(=N\O)c3csc(N)n3)[C@H]2SC1 [OMNICEF]	< 9.85 µM	< 9.85 µM	< 9.85 µM	< 9.85 µM
O=C1NC(=O)/C(=C/c2cccc(C(F)(F)F)c2)S1 [SMI-4a]	< 9.85 µM	12.2 µM and 14.6 µM	< 9.85 µM	< 9.85 µM
OC1(c2ccc(Cl)c(C(F)(F)F)c2)CCN(CCCC(c2ccc(F)cc2)c2ccc(F)cc2)CC1 [SEMAP]	< 9.85 µM	< 9.85 µM	29.7 µM	27.3 µM
C[C@H](Cc1ccc(O)c(O)c1)[C@@H](C)Cc1ccc(O)c(O)c1	< 9.85 µM	< 9.85 µM	33.4 µM	57.9 µM
O=C(/C=C/c1ccc(O)c(O)c1)c1ccc(O)cc1O [Butein]	21.3 µM	30.4 µM	92.3 µM	98.5 µM
CCn1cnc2c(Nc3cccc(Cl)c3)nc(N[C@@H]3CCCC[C@@H]3N)nc21	15.2 µM	17 µM	65.8 µM	78.3 µM
